In PubChem BioAssay AID248 (DTP/NCI, 2004):
“And” between values parts separate entries of the source, which are not always exact repeats. Identical values can stand only once. Toxic doses and inconclusive results are not listed.

Test system: L1210 leukemia ip in BDF1 mice, survival T/C
Assay: NCI In Vivo Anticancer Drug Screen. Data for tumor model L1210 Leukemia (intraperitoneal) in B6D2F1 (BDF1) mice
Details: endpoint: mean survival time, higher = longer survival
Procedure, shortened: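 Transplanted-tumor mice were given test agent; controls received vehicle only. Survival readings from the two groups were divided (treated over control).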

[1] = dose: 100.0 mg/kg/injection, schedule: Q04DX003 (ip), vehicle: saline
[2] = dose: 200.0 mg/kg/injection, schedule: Q04DX003 (ip), vehicle: saline
[3] = dose: 400.0 mg/kg/injection, schedule: Q04DX003 (ip), vehicle: saline
[4] = dose: 100.0 mg/kg/injection, schedule: Q01DX009 (ip), vehicle: saline with Tween-80
[5] = dose: 200.0 mg/kg/injection, schedule: Q01DX009 (ip), vehicle: saline with Tween-80
[6] = dose: 400.0 mg/kg/injection, schedule: Q01DX009 (ip), vehicle: saline with Tween-80
[7] = dose: 100.0 mg/kg/injection, schedule: Q04DX003 (ip), vehicle: saline with Tween-80
[8] = dose: 200.0 mg/kg/injection, schedule: Q04DX003 (ip), vehicle: saline with Tween-80
[9] = dose: 100.0 mg/kg/injection, schedule: Q01DX001 (ip), vehicle: Klucel (hydroxypropylcellulose) (HPC)
[10] = dose: 200.0 mg/kg/injection, schedule: Q01DX001 (ip), vehicle: Klucel (hydroxypropylcellulose) (HPC)
[11] = dose: 400.0 mg/kg/injection, schedule: Q01DX001 (ip), vehicle: Klucel (hydroxypropylcellulose) (HPC)

`BrC1=C(Br)C2(Br)C(c3ccccc3)CC1(Br)C2(Br)Br` (stereo not given) was tested, and the T/C [1] was 92 % of control, the T/C [2] was 106 % of control and the T/C [3] was 92 % of control.
In the case of `O=C(CBr)NC(Cc1ccccc1)C(=O)O` (stereo not given), the T/C (dose: 75.0 mg/kg/injection, schedule: Q01DX001 (ip), vehicle: saline) is reported as 94 % of control and 90 % of control, the T/C (dose: 150.0 mg/kg/injection, schedule: Q01DX001 (ip), vehicle: saline) is reported as 103 % of control and the T/C (dose: 300.0 mg/kg/injection, schedule: Q01DX001 (ip), vehicle: saline) is reported as 90 % of control.
With `O=C(Nc1cc(Cl)c(Cl)cc1NC(=O)C(Cl)(Cl)Cl)C(Cl)(Cl)Cl` the T/C (dose: 5.0 mg/kg/injection, schedule: Q01DX001 (ip), vehicle: other) was 97 % of control and the T/C (dose: 10.0 mg/kg/injection, schedule: Q01DX001 (ip), vehicle: other) was 100 % of control.
With `C#C/C(CCC)=N\Nc1ccc([N+](=O)[O-])cc1[N+](=O)[O-]` the T/C (dose: 50.0 mg/kg/injection, schedule: Q04DX002 (ip), vehicle: saline with Tween-80) was 88 % of control, the T/C (dose: 100.0 mg/kg/injection, schedule: Q04DX002 (ip), vehicle: saline with Tween-80) was 94 % of control and the T/C (dose: 200.0 mg/kg/injection, schedule: Q04DX002 (ip), vehicle: saline with Tween-80) was 88 % of control.
`CN(C)C(C#N)c1c[nH]c2ccccc12` (stereo not given) was tested, and the T/C (dose: 12.5 mg/kg/injection, schedule: Q01DX009 (ip), vehicle: Klucel (hydroxypropylcellulose) (HPC)) was 87 % of control, the T/C (dose: 12.5 mg/kg/injection, schedule: Q04DX003 (ip), vehicle: Klucel (hydroxypropylcellulose) (HPC)) was 97 % of control and the T/C (dose: 25.0 mg/kg/injection, schedule: Q01DX009 (ip), vehicle: Klucel (hydroxypropylcellulose) (HPC)) was 97 % of control. For the same molecule, the T/C (dose: 25.0 mg/kg/injection, schedule: Q04DX003 (ip), vehicle: Klucel (hydroxypropylcellulose) (HPC)) was 97 % of control and the T/C (dose: 50.0 mg/kg/injection, schedule: Q04DX003 (ip), vehicle: Klucel (hydroxypropylcellulose) (HPC)) was 94 % of control.
`c1ccc(-c2ncnc3c2Cc2ccccc2-3)cc1` was tested, and the T/C (dose: 100.0 mg/kg/injection, schedule: Q04DX003 (ip), vehicle: saline sonified) was 92 % of control, the T/C (dose: 200.0 mg/kg/injection, schedule: Q04DX003 (ip), vehicle: saline sonified) was 94 % of control and the T/C (dose: 400.0 mg/kg/injection, schedule: Q04DX003 (ip), vehicle: saline sonified) was 97 % of control.
In the case of `O=C1OCc2cc[n+]([O-])cc21`, the T/C (dose: 100.0 mg/kg/injection, schedule: Q01DX001 (ip), vehicle: carboxymethylcellulose (CMC)) is reported as 97 % of control, the T/C (dose: 200.0 mg/kg/injection, schedule: Q01DX001 (ip), vehicle: carboxymethylcellulose (CMC)) is reported as 96 % of control and the T/C (dose: 400.0 mg/kg/injection, schedule: Q01DX001 (ip), vehicle: carboxymethylcellulose (CMC)) is reported as 107 % of control.
`CCCCCCC(C)OCC(=O)c1ccccc1` (stereo not given) was tested, and the T/C (dose: 100.0 mg/kg/injection, schedule: Q04DX002 (ip), vehicle: saline) was 94 % of control and the T/C (dose: 200.0 mg/kg/injection, schedule: Q04DX002 (ip), vehicle: saline) was 91 % of control.
For `O=C(O)c1cccc([N+](=O)[O-])c1I`, the T/C [4] was 100 % of control, the T/C [5] was 101 % of control and the T/C [6] was 97 % of control.
`COc1ccc2[nH]c3cc(Cl)ccc3c(=O)c2c1` was tested, and the T/C [4] was 91 % of control, the T/C [5] was 88 % of control and the T/C [6] was 86 % of control.
In the case of `CCCCSP(=S)(OCC)OCC`, the T/C [7] is reported as 101 % of control and the T/C [8] is reported as 88 % of control.
`COc1cc([N+](=O)[O-])c(Cl)cc1NS(=O)(=O)c1ccc(C)cc1` was tested, and the T/C [9] was 98 % of control, the T/C [10] was 95 % of control and the T/C [11] was 90 % of control.
For `CN(C)C(=S)SC1OC(CO)C(SC(=S)N(C)C)OC1CO` (stereo not given), the T/C (dose: 50.0 mg/kg/injection, schedule: Q01DX009 (ip), vehicle: saline with Tween-80) was 97 % of control, the T/C [4] was 104 % of control and the T/C [5] was 97 % of control.
In the case of `Cc1cc(Cl)nc2ccc(Cc3ccc4nc(Cl)cc(C)c4c3)cc12`, the T/C (dose: 100.0 mg/kg/injection, schedule: Q01DX001 (ip), vehicle: saline) is reported as 91 % of control, the T/C (dose: 200.0 mg/kg/injection, schedule: Q01DX001 (ip), vehicle: saline) is reported as 94 % of control and the T/C (dose: 400.0 mg/kg/injection, schedule: Q01DX001 (ip), vehicle: saline) is reported as 96 % of control.
`Nc1ccc(N=Nc2ccc(S(=O)(=O)O)cc2)cc1` was tested, and the T/C [4] was 87 % of control, the T/C [5] was 95 % of control and the T/C [6] was 97 % of control.
`CC(C(=O)O)C(NC(=O)c1ccccc1)C(=O)O` (stereo not given) was tested, and the T/C [9] was 93 % of control, the T/C [10] was 100 % of control and the T/C [11] was 92 % of control.
In the case of `N#CCCSCCC#N`, the T/C (dose: 7.5 mg/kg/injection, schedule: Q01DX009 (ip), vehicle: saline) is reported as 101 % of control, the T/C [7] is reported as 105 % of control and the T/C [1] is reported as 115 % of control. The T/C (dose: 150.0 mg/kg/injection, schedule: Q01DX009 (ip), vehicle: saline) was 93 % of control, the T/C [8] was 100 % of control and the T/C [2] was 101 % of control. The T/C (dose: 300.0 mg/kg/injection, schedule: Q01DX009 (ip), vehicle: saline) was 98 % of control, the T/C (dose: 400.0 mg/kg/injection, schedule: Q04DX003 (ip), vehicle: saline with Tween-80) was 108 % of control and the T/C [3] was 100 % of control.
With `Nc1nc(SCc2ccccc2)c2[nH]cnc2n1` the T/C (dose: 4.0 mg/kg/injection, schedule: Q01DX Z (ip), vehicle: carboxymethylcellulose (CMC)) was 124 % of control, the T/C (dose: 5.0 mg/kg/injection, schedule: Q03DX Z (ip), vehicle: carboxymethylcellulose (CMC)) was 92 % of control and the T/C (dose: 8.0 mg/kg/injection, schedule: Q01DX010 (ip), vehicle: saline) was 100 % of control. The T/C (dose: 8.0 mg/kg/injection, schedule: Q01DX Z (oral), vehicle: carboxymethylcellulose (CMC)) was 158 % of control, the T/C (dose: 10.0 mg/kg/injection, schedule: Q01DX Z (ip), vehicle: carboxymethylcellulose (CMC)) was 152 % of control and the T/C (dose: 10.0 mg/kg/injection, schedule: Q03DX Z (ip), vehicle: carboxymethylcellulose (CMC)) was 116 % of control. The T/C (dose: 15.0 mg/kg/injection, schedule: Q03DX Z (ip), vehicle: carboxymethylcellulose (CMC)) was 124 % of control, the T/C (dose: 20.0 mg/kg/injection, schedule: Q01DX001 (ip), vehicle: carboxymethylcellulose (CMC)) was 151 % of control and the T/C (dose: 20.0 mg/kg/injection, schedule: Q03DX Z (ip), vehicle: carboxymethylcellulose (CMC)) was 216 % of control. For the same molecule, the T/C (dose: 41.0 mg/kg/injection, schedule: Q01DX001 (ip), vehicle: carboxymethylcellulose (CMC)) was 163 % of control, the T/C (dose: 41.0 mg/kg/injection, schedule: Q03DX Z (ip), vehicle: carboxymethylcellulose (CMC)) was 158 % of control and the T/C (dose: 41.0 mg/kg/injection, schedule: Q07DX Z (ip), vehicle: carboxymethylcellulose (CMC)) was 165 % of control. For the same molecule, the T/C (dose: 60.0 mg/kg/injection, schedule: Q01DX Z (ip), vehicle: carboxymethylcellulose (CMC)) was 118 % of control, the T/C (dose: 62.5 mg/kg/injection, schedule: Q01DX010 (ip), vehicle: saline) was 108 % of control and the T/C (dose: 64.0 mg/kg/injection, schedule: Q01DX Z (oral), vehicle: carboxymethylcellulose (CMC)) was 124 % of control. The T/C (dose: 82.0 mg/kg/injection, schedule: Q01DX001 (ip), vehicle: carboxymethylcellulose (CMC)) was 157 % of control, the T/C (dose: 82.0 mg/kg/injection, schedule: Q07DX Z (ip), vehicle: carboxymethylcellulose (CMC)) was 168 % of control and the T/C (dose: 86.0 mg/kg/injection, schedule: Q01DX001 (ip), vehicle: carboxymethylcellulose (CMC)) was 163 % of control. The T/C (dose: 125.0 mg/kg/injection, schedule: Q01DX010 (ip), vehicle: saline) was 103 % of control, the T/C (dose: 129.0 mg/kg/injection, schedule: Q01DX001 (ip), vehicle: carboxymethylcellulose (CMC)) was 160 % of control and the T/C (dose: 195.0 mg/kg/injection, schedule: Q01DX001 (ip), vehicle: carboxymethylcellulose (CMC)) was 168 % of control and 181 % of control. The T/C (dose: 292.0 mg/kg/injection, schedule: Q03DX Z (ip), vehicle: carboxymethylcellulose (CMC)) was 101 % of control and the T/C (dose: 292.0 mg/kg/injection, schedule: Q07DX Z (ip), vehicle: carboxymethylcellulose (CMC)) was 114 % of control.
For `CCCCCCCCCCCCc1ccc(CS)cc1`, the T/C (dose: 100.0 mg/kg/injection, schedule: Q01DX009 (ip), vehicle: saline) was 98 % of control, the T/C [1] was 92 % of control and the T/C (dose: 200.0 mg/kg/injection, schedule: Q01DX009 (ip), vehicle: saline) was 101 % of control. For the same molecule, the T/C [2] was 91 % of control, the T/C (dose: 400.0 mg/kg/injection, schedule: Q01DX009 (ip), vehicle: saline) was 101 % of control and the T/C [3] was 93 % of control.
